Measured values from ChEMBL document CHEMBL1151438, “In vitro resistance study of rupintrivir, a novel inhibitor of human rhinovirus 3C protease” (Antimicrob Agents Chemother, 2007).

Experiments:
rhinovirus A39 = experiment: Ratio of EC50 for HRV39 infected in human H1-HeLa cells after 1 passage for 7 days to EC50 for wild type HRV39 infected in human H1-HeLa cells; type: functional
Human rhinovirus sp. [1] = experiment: Ratio of EC50 for HRV Hanks infected in human H1-HeLa cells after 3 passage for 35 days to EC50 for wild type HRV Hanks infected in human H1-HeLa cells; type: functional
rhinovirus B14 [2] = experiment: Antiviral activity against HRV14 with 3C protease A121A/V, T129A, T131A, N132S, Y139Y/H, T143P mutation infected in human H1-HeLa cells assessed as virus-induced cytopathic effect after 12 passages for 72 days by XTT assay; type: functional, organism-based; settings: Rhinovirus B
rhinovirus B14 [3] = experiment: Antiviral activity against HRV14 with 3C protease T129A, T131T/A, T143P mutation infected in human H1-HeLa cells assessed as virus-induced cytopathic effect after 4 passages for 17 days by XTT assay; type: functional, organism-based; settings: Rhinovirus B, 408 h
rhinovirus B14 [4] = experiment: Ratio of EC50 for HRV14 with 3C protease with A121A/V, T129A, T131A, N132S, Y139Y/H, T143P mutation infected in human H1-HeLa cells after 12 passages for 72 days to EC50 for wild type HRV14 infected in human H1-HeLa cells; type: functional
rhinovirus B14 [5] = experiment: Ratio of EC50 for HRV14 infected in human H1-HeLa cells after 4 passages for 17 days to EC50 for wild type HRV14 infected in human H1-HeLa cells; type: functional
rhinovirus B14 [6] = experiment: Antiviral activity against 0.02 MOI HRV14 infected in human H1-HeLa cells assessed as cell killing after 5 passages for 22 days by XTT assay; type: functional
rhinovirus B14 [7] = experiment: Antiviral activity against HRV14 with 3C protease T129T/A, T131T/A, T143P/S mutation infected in human H1-HeLa cells assessed as virus-induced cytopathic effect after 3 passages for 14 days by XTT assay; type: functional, organism-based; settings: Rhinovirus B, 336 h
rhinovirus B14 [8] = experiment: Ratio of EC50 for HRV14 with 3C protease T129A, T131A, Y139H, T143P mutation infected in human H1-HeLa cells to EC50 for wild type HRV14 infected in human H1-HeLa cells; type: functional
rhinovirus B14 [9] = experiment: Ratio of EC50 for HRV14 with 3C protease T129A mutation infected in human H1-HeLa cells to EC50 for wild type HRV14 infected in human H1-HeLa cells; type: functional
rhinovirus A2 [10] = experiment: Ratio of EC50 for HRV2 infected in human H1-HeLa cells after 2 passages for 10 days to EC50 for wild type HRV2 infected in human H1-HeLa cells; type: functional
rhinovirus B14 [11] = experiment: Ratio of EC50 for HRV14 with 3C protease with T129A, T131T/A, T143P mutation infected in human H1-HeLa cells after 5 passages for 22 days to EC50 for wild type HRV14 infected in human H1-HeLa cells; type: functional
rhinovirus A2 [12] = experiment: Ratio of EC50 for HRV2 infected in human H1-HeLa cells after 5 passages for 30 days to EC50 for wild type HRV2 infected in human H1-HeLa cells; type: functional
rhinovirus B14 [13] = experiment: Ratio of EC50 for HRV14 with 3C protease with T129A, T131A, T143P, Y139Y/H mutation infected in human H1-HeLa cells after 10 passages for 55 days to EC50 for wild type HRV14 infected in human H1-HeLa cells; type: functional
Human rhinovirus sp. [14] = experiment: Ratio of EC50 for HRV Hanks with 3C protease T130A mutation infected in human H1-HeLa cells after 6 passages for 40 days to EC50 for wild type HRV Hanks infected in human H1-HeLa cells; type: functional
rhinovirus B14 [15] = experiment: Ratio of EC50 for HRV14 infected in human H1-HeLa cells after 11 passages for 65 days to EC50 for wild type HRV14 infected in human H1-HeLa cells; type: functional
rhinovirus A2 [16] = experiment: Ratio of EC50 for HRV2 with 3C protease N165T mutation infected in human H1-HeLa cells after 5 passages for 30 days to EC50 for wild type HRV2 infected in human H1-HeLa cells; type: functional
rhinovirus B14 [17] = experiment: Ratio of EC50 for HRV14 with 3C protease T129A, T131T/A, T143P mutation infected in human H1-HeLa cells after 4 passages for 17 days to EC50 for wild type HRV14 infected in human H1-HeLa cells; type: functional
rhinovirus A2 [18] = experiment: Antiviral activity against HRV2 with 3C protease N165T mutation infected in human H1-HeLa cells assessed as virus-induced cytopathic effect after 6 passages for 37 days by XTT assay; type: functional, organism-based; settings: Rhinovirus A
rhinovirus A2 [19] = experiment: Ratio of EC50 for HRV2 with 3C protease N165T mutation infected in human H1-HeLa cells after 3 passages for 24 days to EC50 for wild type HRV2 infected in human H1-HeLa cells; type: functional
rhinovirus A2 [20] = experiment: Antiviral activity against HRV2 with 3C protease N165T mutation infected in human H1-HeLa cells assessed as virus-induced cytopathic effect after 5 passages for 30 days by XTT assay; type: functional, organism-based; settings: Rhinovirus A
rhinovirus A2 [21] = experiment: Ratio of EC50 for HRV2 with 3C protease E3E/G, A103A/V, N165T mutation infected in human H1-HeLa cells after 9 passages for 62 days to EC50 for wild type HRV2 infected in human H1-HeLa cells; type: functional
rhinovirus B14 [22] = experiment: Ratio of EC50 for HRV14 infected in human H1-HeLa cells after 6 passages for 27 days to EC50 for wild type HRV14 infected in human H1-HeLa cells; type: functional
Human rhinovirus sp. [23] = experiment: Ratio of EC50 for HRV Hanks infected in human H1-HeLa cells after 9 passage for 59 days to EC50 for wild type HRV Hanks infected in human H1-HeLa cells; type: functional
rhinovirus B14 [24] = experiment: Ratio of EC50 for HRV14 infected in human H1-HeLa cells after 12 passages for 72 days to EC50 for wild type HRV14 infected in human H1-HeLa cells; type: functional
Human rhinovirus sp. [25] = experiment: Ratio of EC50 for HRV Hanks infected in human H1-HeLa cells after 6 passage for 40 days to EC50 for wild type HRV Hanks infected in human H1-HeLa cells; type: functional
rhinovirus B14 [26] = experiment: Ratio of EC50 for HRV14 infected in human H1-HeLa cells after 2 passages for 11 days to EC50 for wild type HRV14 infected in human H1-HeLa cells; type: functional
rhinovirus A2 [27] = experiment: Ratio of EC50 for HRV2 infected in human H1-HeLa cells after 7 passages for 45 days to EC50 for wild type HRV2 infected in human H1-HeLa cells; type: functional
rhinovirus B14 [28] = experiment: Ratio of EC50 for HRV14 with 3C protease T143P mutation infected in human H1-HeLa cells to EC50 for wild type HRV14 infected in human H1-HeLa cells; type: functional
rhinovirus B14 [29] = experiment: Antiviral activity against HRV14 with 3C protease T143P mutation infected in human H1-HeLa cells assessed as virus-induced cytopathic effect after 3 days by XTT assay; type: functional, organism-based; settings: Rhinovirus B, 72 h
rhinovirus B14 [30] = experiment: Antiviral activity against HRV14 with 3C protease T131A mutation infected in human H1-HeLa cells assessed as virus-induced cytopathic effect after 3 days by XTT assay; type: functional, organism-based; settings: Rhinovirus B, 72 h

In the case of `CCOC(=O)/C=C/[C@H](C[C@@H]1CCNC1=O)NC(=O)[C@@H](CC(=O)[C@@H](NC(=O)c1cc(C)on1)C(C)C)Cc1ccc(F)cc1` [RUPINTRIVIR], the “Ratio EC50” value (rhinovirus A39) is reported as 3, the “Ratio EC50” value (Human rhinovirus sp. [1]) is reported as 2 and the EC50 (rhinovirus B14 [2]) is reported as 0.414 µM. The EC50 (rhinovirus B14 [3]) was 0.227 µM, the “Ratio EC50” value (rhinovirus B14 [4]) was 20 and the “Ratio EC50” value (rhinovirus B14 [5]) was 10. The Activity (rhinovirus B14 [6]) was 88.2%, the EC50 (rhinovirus B14 [7]) was 0.152 µM and the “Ratio EC50” value (rhinovirus B14 [8]) was 7. For the same compound, the “Ratio EC50” value (rhinovirus B14 [9]) was 1, the “Ratio EC50” value (rhinovirus A2 [10]) was 1 and the “Ratio EC50” value (rhinovirus B14 [11]) was 5. For the same compound, the “Ratio EC50” value (rhinovirus A2 [12]) was 5, the “Ratio EC50” value (rhinovirus B14 [13]) was 15 and the “Ratio EC50” value (Human rhinovirus sp. [14]) was 3. The “Ratio EC50” value (rhinovirus B14 [15]) was 90, the “Ratio EC50” value (rhinovirus A2 [16]) was 2 and the “Ratio EC50” value (rhinovirus B14 [17]) was 11. The EC50 (rhinovirus A2 [18]) was 0.067 µM, the “Ratio EC50” value (rhinovirus A2 [19]) was 1 and the EC50 (rhinovirus A2 [20]) was 0.057 µM. For the same compound, the “Ratio EC50” value (rhinovirus A2 [21]) was 5, the “Ratio EC50” value (rhinovirus B14 [22]) was 20 and the “Ratio EC50” value (Human rhinovirus sp. [23]) was 3. The “Ratio EC50” value (rhinovirus B14 [24]) was 90, the “Ratio EC50” value (Human rhinovirus sp. [25]) was 3 and the “Ratio EC50” value (rhinovirus B14 [26]) was 3.5. The “Ratio EC50” value (rhinovirus A2 [27]) was 5, the “Ratio EC50” value (rhinovirus B14 [28]) was 1 and the EC50 (rhinovirus B14 [29]) was 0.015 µM. For the same compound, the EC50 (rhinovirus B14 [30]) was 0.014 µM.
